From patent US12686680B2, “Substituted pyrazolo[1,5-α]pyrimidines as CRF receptor antagonists” (Neurocrine Biosciences, Inc., priority 2019, dated 2026)

What was measured:
[1] = pKa determination, SiriusT3 UV-metric and pH-metric co-solvent titration; format: physicochemical; settings: water:CH3OH co-solvent mixtures
Protocol: The pKa was determined using a SiriusT3 (Serial: T317136) with a UV-metric co-solvent titration assay and a pH-metric co-solvent titration assay. For the UV-metric, 10 mM sample was prepared in DMSO with phosphate buffer and placed on the instrument along with a blank prepared with the same composition, absent compound. For pH-metric, an appropriate weight of sample was added to a glass vial to meet buffer capacity requirements, absent of diluent. For each test, pKa was measured in three water:CH3OH ratios. The reported pKas are extrapolated graphically via the Yasuda-Shedlovsky method.

CRF1 receptor = target: T1, CRF1 receptor (Homo sapiens, UniProt P34998); assay: CRF1 receptor binding kinetics (association/dissociation rate constants, method of Fleck et al.); settings: for Ki: Ki=k−1/k1, read-out: Kinetic Ki; for k1: association rate constant; for k^−1: dissociation rate constant
T1 sequence (P34998 24-415): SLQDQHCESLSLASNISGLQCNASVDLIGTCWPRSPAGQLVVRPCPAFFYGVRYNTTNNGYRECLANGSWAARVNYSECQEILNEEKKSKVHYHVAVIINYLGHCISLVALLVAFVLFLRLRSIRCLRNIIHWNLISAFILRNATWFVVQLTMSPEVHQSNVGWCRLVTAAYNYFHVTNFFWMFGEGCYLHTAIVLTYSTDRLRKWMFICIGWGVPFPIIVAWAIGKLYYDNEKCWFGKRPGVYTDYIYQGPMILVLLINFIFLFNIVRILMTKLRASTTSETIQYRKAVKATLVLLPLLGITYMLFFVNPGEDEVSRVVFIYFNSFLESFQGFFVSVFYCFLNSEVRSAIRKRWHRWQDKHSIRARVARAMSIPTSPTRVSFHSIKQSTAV
Protocol: The association (k1) and dissociation (k−1) rate constants defining binding of the Compounds to the CRF1 receptor were determined by the method described in Fleck et al. (J. Pharmacology and Experimental Therapeutics, 341(2):518-531, 2012) (hereinafter “Fleck et al.” and incorporated by reference in its entirety). As described therein, the activity of a CRF1 receptor antagonist can be expressed as the kinetically derived affinity (Ki) calculated from the association (k1) and dissociation (k−1) rate constants by the following equation: Ki=k−1/k1
The Compounds listed in Table 5 were evaluated according to these procedures, and the kinetic Ki was determined and found to be as follows: […]

ADX rats = assay: Lowering of ACTH in adrenalectomized rats; format: in vivo; settings: oral, 10 mg/kg single dose, n=11/group

CCCN(Cc1ccc(-c2csc(N(C)C)n2)cc1)c1cc(C)nc2c(-c3cnc(N(C)C)cc3C)c(C)nn12 [Compound 1, 5-{7-[({4-[2-(dimethylamino)-1,3-thiazol-4-yl]phenyl}methyl)(propyl)amino]-2,5-dimethylpyrazolo[1,5-a]pyrimidin-3-yl}-N,N,4-trimethylpyridin-2-amine]
pKa ([1]; UV-metric method, Yasuda-Shedlovsky extrapolation from water:CH3OH): 4.07 ± 0.06
pKa ([1]; overall, two methods): ~4.1
pKa ([1]; pH-metric method, Yasuda-Shedlovsky extrapolation from water:CH3OH): 4.06 ± 0.08
Ki (CRF1 receptor): < 0.22 nM
k1 (CRF1 receptor): 4.9 ± 1.7 10^6M^−1min^−1
k^−1 (CRF1 receptor): <0.001 min⁻¹
duration of lowering of plasma ACTH levels (ADX rats): up to 5 hours
plasma ACTH levels (ADX rats): significantly lowered

CCCN(Cc1ccc(-c2cccnc2)cc1)c1cc(C)nc2c(-c3cnc(N(C)C)cc3C)c(C)nn12 [Compound 2, 5-{2,5-dimethyl-7-[propyl({[4-(pyridin-3-yl)phenyl]methyl})amino]pyrazolo[1,5-a]pyrimidin-3-yl}-N,N,4-trimethylpyridin-2-amine]
Ki (CRF1 receptor): < 0.19 nM
k1 (CRF1 receptor): 5.3 ± 0.78 10^6M^−1min^−1
k^−1 (CRF1 receptor): <0.001 min⁻¹

CCCN(Cc1ccc(-n2cncn2)cc1)c1cc(C)nc2c(-c3cnc(N(C)C)cc3C)c(C)nn12 [Compound 10, 5-{2,5-dimethyl-7-[propyl({[4-(1H-1,2,4-triazol-1-yl)phenyl]methyl})amino]pyrazolo[1,5-a]pyrimidin-3-yl}-N,N,4-trimethylpyridin-2-amine]
Ki (CRF1 receptor): 0.95 nM
k1 (CRF1 receptor): 2.2 10^6M^−1min^−1
k^−1 (CRF1 receptor): 0.0021 min⁻¹

CCCN(Cc1ccc(-n2cccn2)cc1)c1cc(C)nc2c(-c3cnc(N(C)C)cc3C)c(C)nn12 [Compound 9, 5-{2,5-dimethyl-7-[propyl({[4-(1H-pyrazol-1-yl)phenyl]methyl})amino]pyrazolo[1,5-a]pyrimidin-3-yl}-N,N,4-trimethylpyridin-2-amine]
Ki (CRF1 receptor): < 0.29 nM
k1 (CRF1 receptor): 3.5 ± 1.1 10^6M^−1min^−1
k^−1 (CRF1 receptor): <0.001 min⁻¹
